In brackets after ≈: the same amount, converted by molar mass. Read-outs that look alike come from different tables or passages of the source.
Tests used:
[1] = Lipophilicity determination by RP-HPLC (log k, log D); type: physicochemical; settings: for log k: MeOH 72%/H2O 28%; for log D6.5: MeOH 72%/acetate buffered saline pH 6.5; for log D7.4: MeOH 72%/acetate buffered saline pH 7.4
Method: In addition to the mentioned ADME profile, it is responsible for interactions with biological targets. Lipophilicity is recognized as one of the most important parameters influencing ADME and bioactivity and is also part, e.g., of Lipinski’s Rule of Five (Ro5). This thermodynamic parameter describing the molecule’s affinity for an aqueous or relatively lipophilic environment can be characterized by the logarithm of the partition coefficient (log P). In this study, lipophilicity was measured by reversed-phase high-performance liquid chromatography (RP-HPLC) under isocratic conditions with methanol as the organic modifier in the aqueous mobile phase and the logarithm of the capacity factor k was calculated, which is used as the lipophilicity index converted to the log P scale. In addition to the log k values, the logarithm of the distribution coefficient DpH at pH 6.5 and 7.4 was determined to clarify the behavior of the compounds under physiological conditions and possible ionization. Instead of water, a buffer of suitable pH was used as part of the mobile phase. In addition to the above-mentioned experimental methods, commercially available ChemBioDraw Ultra 13.0 and ACD/Percepta ver. 2012 programs were used to calculate the lipophilicity values of all prepared compounds.
A HPLC separation module Waters Alliance 2695 XE equipped with a Waters Dual Absorbance Detector 2486 (Waters Corp., Milford, MA, USA) was used. A chromatographic column Symmetry® C18 5 μm, 4.6 × 250 mm, Part No. W21751W016 (Waters Corp., Milford, MA, USA) was used. The HPLC separation process was monitored by Empower® 3 Chromatography Manager Software (Waters Corp.). Isocratic elution by a mixture of MeOH p.a. (72%) and H2O-HPLC Mili-Q grade (28%) as a mobile phase was used for the determination of capacity factor k. Isocratic elution by a mixture of MeOH p.a. (72%) and acetate buffered saline (pH 7.4 and pH 6.5) (28%) as a mobile phase was used for the determination of distribution coefficient expressed as D7.4 and D6.5. The total flow of the column was 1.0 mL/min, injection 20 μL, column temperature 40 °C, and sample temperature 10 °C. The detection wavelength of 210 nm was chosen. A KI methanolic solution was used for the determination of the dead times (tD). Retention times (tR) were measured in minutes. The capacity factors k were calculated according to the formula k = (tR − tD)/tD, where tR is the retention time of the solute, and tD is the dead time obtained using an unretained analyte. The distribution coefficients DpH were calculated according to the formula DpH = (tR − tD)/tD. Each experiment was repeated three times.

[2] = tested on: methicillin-resistant S. aureus (MRSA) 63718; experiment: In vitro antistaphylococcal activity, microtitration broth MIC; type: cell-based; settings: Staphylococcus aureus
[3] = tested on: Enterococcus faecalis ATCC 29212; experiment: In vitro antienterococcal activity, microtitration broth MIC; type: cell-based
[4] = tested on: vancomycin-resistant E. faecalis (VRE) 342B; experiment: as above; type: cell-based, Enterococcus faecalis; settings: 24 h
[5] = tested on: vancomycin-resistant E. faecalis (VRE) 368; experiment: as above; type: cell-based, Enterococcus faecalis
[6] = tested on: vancomycin-resistant E. faecalis (VRE) 725B; experiment: as above; type: cell-based, Enterococcus faecalis; settings: 24 h
[7] = tested on: human monocytic leukemia cell line THP-1; experiment: In vitro cell viability, CCK-8; type: cell-based; settings: for IC50: Homo sapiens, THP-1
Method: (§1) The effect of the compounds on viability of eukaryotic cells was evaluated on human leukemia cell line THP-1, human synovial cell line SW982, and isolated primary porcine monocytes-delivered macrophages (MDM). The general cytotoxic effect was studied on THP-1 cells in the serum-free medium (only THP-1 as the only cells used in this study are able to survive in serum-free medium). Most of the compounds had no cytotoxic effect on THP-1 cells. […] This could be caused by the direct interaction of such compounds with serum proteins or by the effect of mitogens, cytokines, and hormones present in the serum. Obviously, the full medium is closer to physiological conditions in living organisms, so it can be assumed that these compounds could be non-toxic there.
(§2) Human monocytic leukemia cell line THP-1 and human synovial cell line SW982 were purchased from the European Collection of Cell Cultures (ECACC, Salisbury, UK) and were used for determination of the influence of test compounds on cell viability, as described previously. These cell lines represent typical suspension and adherent cells, respectively. They were cultivated with test substances in the presence or absence of fetal bovine serum (FBS) in the cultivation medium, and the relative cell viability (the ratio between cells treated with compounds and cells treated only with DMSO) was determined by CCK-8 kit (Sigma) after 24 h.

[8] = tested on: human synovial cell line SW982; experiment: In vitro cell viability, CCK-8; type: cell-based; settings: 10% fetal bovine serum
Method: as §1, §2

[9] = tested on: porcine monocyte-derived macrophages (MDM); experiment: In vitro cell viability, CCK-8; type: cell-based; settings: Sus scrofa, Macrophage, 10% fetal bovine serum
Method: as §1
Porcine monocyte-derived macrophages (MDMs) were prepared, as described previously. Briefly, blood was collected from three-month-old pigs and peripheral blood mononuclear cells (PBMC) were isolated by gradient centrifugation (830× g, 40 min) using Histopaque-1077 (Sigma). CD14+ cells were isolated by positive magnetic bead selection with LS separation columns (Miltenyi Biotec, Bergisch Gladbach, Germany). Isolated monocytes were cultured in 96-well plates at a concentration of 1 × 10^5 cells per well in 0.2 mL of DMEM supplemented with 10% FBS and 1% antibiotics (Antibiotic Antimycotic Solution 100 × 10,000 units penicillin, 10 mg streptomycin, and 25 μg amphotericin B per mL; Sigma) and incubated for five days at 37 °C in 5% CO2 to differentiate into macrophages. Then, MDMs were cultured for 24 h with tested substances and the relative cell viability was determined by CCK-8 kit (Sigma) following manufacturer instructions.

[10] = tested on: S. aureus, MRSA, E. faecalis, VRE, M. smegmatis, M. marinum; experiment: In vitro antimicrobial screening, all tested strains; type: cell-based; settings: antibacterial/antimycobacterial screening
[11] = 24 h, MRSA 63718, read-out: log(1/MIC [M]) MRSA1 (converted)
[12] = MRSA 63718, 24 h, read-out: MIC MRSA1
[13] = ATCC29212, 24 h, E. faecalis reference strain, read-out: log(1/MIC [M]) EF (converted)
[14] = ATCC29212, E. faecalis reference strain, 24 h, read-out: MIC EF
[15] = read-out: log(1/MIC [M]) VRE1 (converted)
[16] = 24 h, VRE 368, read-out: log(1/MIC [M]) VRE2 (converted)
[17] = VRE 368, 24 h, read-out: MIC VRE2
[18] = read-out: log(1/MIC [M]) VRE3 (converted)
[19] = 10% fetal bovine serum, 24 h, read-out: IC50 THP-1 10% FSB
[20] = 10% fetal bovine serum, read-out: log(1/IC50 [M]) THP-1 10% FSB (converted)
[21] = serum-free medium, 24 h, read-out: IC50 THP-1 SFM
[22] = serum-free medium, read-out: log(1/IC50 [M]) THP-1 SFM (converted)
[23] = 24 h, read-out: IC50 SW982 10% FSB
[24] = read-out: log(1/IC50 [M]) SW982 10% FSB (converted)
[25] = 24 h, read-out: IC50 MDM 10% FSB
[26] = read-out: log(1/IC50 [M]) MDM 10% FSB (converted)

Row | Structure (SMILES) | log k [1] | log D6.5 [1] | log D7.4 [1] | MIC [2, 11] [M] | MIC [2, 12] [M] | MIC [3, 13] [M] | MIC [3, 14] [M] | MIC ([4]; read-out: MIC VRE1) [M] | MIC [4, 15] [M] | MIC [5, 16] [M] | MIC [5, 17] [M] | MIC ([6]; read-out: MIC VRE3) [M] | MIC [6, 18] [M] | IC50 [7, 19] [M] | IC50 [7, 20] [M] | IC50 [7, 21] [M] | IC50 [7, 22] [M] | IC50 [8, 23] [M] | IC50 [8, 24] [M] | IC50 [9, 25] [M] | other results
1 | O=C(/C=C/c1ccc(Cl)c(Cl)c1)Nc1ccccc1 [2a, (2E)-3-(3,4-Dichlorophenyl)-N-phenylprop-2-enamide] | 0.6199 | 0.6669 | 0.6354 | > 0.000871 | > 0.000876 | 0.000871 (≈ 254 µg/mL) | 0.000876 (≈ 256 µg/mL) | > 0.000876 | > 0.000871 | > 0.000871 | > 0.000876 | > 0.000876 | > 0.000871 | > 1e-05 | > 1e-05 | 7.5e-06 ± 1e-06 | 7.59e-06 | > 1e-05 | > 1e-05 | > 1e-05 | IC50 [9, 26]: > 1e-05 M
2 | O=C(/C=C/c1ccc(Cl)c(Cl)c1)Nc1cccc(C(F)(F)F)c1 [2i, (2E)-3-(3,4-Dichlorophenyl)-N-[3-(trifluoromethyl)phenyl]prop-2-enamide] | 0.9873 | 0.9915 | 0.9505 | 6.92e-07 (≈ 0.249 µg/mL) | 6.94e-07 (≈ 0.25 µg/mL) | 2.24e-05 (≈ 8.06 µg/mL) | 2.22e-05 (≈ 8 µg/mL) | 2.22e-05 (≈ 8 µg/mL) | 2.24e-05 (≈ 8.06 µg/mL) | 2.24e-05 (≈ 8.06 µg/mL) | 2.22e-05 (≈ 8 µg/mL) | 4.44e-05 (≈ 16 µg/mL) | 4.47e-05 (≈ 16.1 µg/mL) | > 1e-05 | > 1e-05 | 1.9e-06 ± 1e-06 | 1.91e-06 | > 1e-05 | > 1e-05 | > 1e-05 | IC50 [9, 26]: > 1e-05 M; antimicrobial activity (in words) [10]: active
3 | O=C(/C=C/c1ccc(Cl)c(Cl)c1)Nc1ccc(C(F)(F)F)cc1 [2j, (2E)-3-(3,4-Dichlorophenyl)-N-[4-(trifluoromethyl)phenyl]prop-2-enamide] | 1.0364 | 1.0370 | 0.9945 | 3.72e-07 (≈ 0.134 µg/mL) | 3.71e-07 (≈ 0.134 µg/mL) | 1.12e-05 (≈ 4.04 µg/mL) | 1.11e-05 (≈ 4 µg/mL) | 1.11e-05 (≈ 4 µg/mL) | 1.12e-05 (≈ 4.04 µg/mL) | 1.12e-05 (≈ 4.04 µg/mL) | 1.11e-05 (≈ 4 µg/mL) | 1.11e-05 (≈ 4 µg/mL) | 1.12e-05 (≈ 4.04 µg/mL) | > 1e-05 | > 1e-05 | 9e-07 ± 1e-06 | 8.91e-07 | > 1e-05 | > 1e-05 | > 1e-05 | IC50 [9, 26]: > 1e-05 M; antimicrobial activity (in words) [10]: active
4 | O=C(/C=C/c1ccc(Cl)c(Cl)c1)Nc1ccc(OC(F)(F)F)cc1 [2k, (2E)-3-(3,4-Dichlorophenyl)-N-[4-(trifluoromethoxy)phenyl]prop-2-enamide] | 1.0513 | 1.0544 | 1.0053 | 1.32e-06 (≈ 0.496 µg/mL) | 1.33e-06 (≈ 0.5 µg/mL) | 4.68e-06 (≈ 1.76 µg/mL) | 1.06e-05 (≈ 3.99 µg/mL) | 2.13e-05 (≈ 8.01 µg/mL) | 2.14e-05 (≈ 8.04 µg/mL) | 4.27e-05 (≈ 16 µg/mL) | 4.25e-05 (≈ 16 µg/mL) | 2.13e-05 (≈ 8.01 µg/mL) | 2.14e-05 (≈ 8.04 µg/mL) | > 1e-05 | > 1e-05 | 1e-06 ± 1e-06 | 5.01e-07 | > 1e-05 | > 1e-05 | > 1e-05 | reduction of cell viability, CCK-8 assay ([7]; 2k 1.0 µM, serum-free medium): 50%; IC50 [9, 26]: > 1e-05 M; antimicrobial activity (in words) [10]: active
